Measured values as given in patent US7652172B2, “Expeditious synthesis of DPD” (The Trustees of Princeton University, priority 2004, dated 2010).

What was measured:
[1] = tested on: V. harveyi strain MM32 (luxN− luxS−); assay: V. harveyi autoinducer bioassay (light emission); format: cell-based; settings: for activity compared with enzymatically prepared DPD in the V. harveyi bioassay: equal concentration, 0.5 M potassium phosphate buffer, pH 7.3
Method: (§1) V. harveyi strain MM32 (luxN^− luxS^−) was grown overnight and subsequently diluted 5.000-fold in AB growth medium. This bioassay was performed as developed by the method of Schauder et. al. (2001). To 90 μL of diluted cells ,10 μL of various compounds were added, and the resulting cultures were further incubated in a 96-well microtiter dish at 30° C. for approximately 6 h. The concentration of crude DPD was calculated by measuring the amount of homocysteine released in an Ellman's test. Light emission was measured using a Wallac model 1450 microbeta Plus scintillation counter.
A. Comparative bioactivity of enzymatically-produced DPD, synthetic DPD and synthetic ent-DPD. Each of these three compounds and a blank were assessed in the above bioassay at equal concentrations. The bio assays were conducted with a dilution of 0.53 mM enzymatically-produced DPD, a dilution of 5.0 mM synthetic DPD or a dilution of 5.0 mM ent-DPD.

[2] = Stability of DPD in aqueous solution monitored by 1H NMR; format: physicochemical
Method: Synthetically-produced DPD was stable under acidic conditions; a 30 mM sample of the molecule was monitored for decomposition via ^1H NMR for 5 h at 20° C. and pH 1.5. […] The purity of the synthetic DPD was further established by reaction with o-phenylenediamine to produce (S)-1-(3-methylquioxalin-2-yl)-ethane-1,2-diol in >98% purity.
To a suspension of 11 (9.6 mg, […]) in D2O) (1.5 mL) was added conc. D2SO4 (1.5 μL, final pD1.5). The reaction was allowed to continue for 5 h and was monitored by ^1H NMR. A ^1H-^1H DQCOSY spectrum was recorded at the 5-h time point to help establish the identity of each ^1H signal. […] The extra signals in the region form 1.35-1.45 ppm and 3.4-4.6 ppm are most likely due to a small amount of 1 that is not hydrated at C3. This hypothesis is supported by the complete disappearance of these peaks upon addition of 1,2-phenylenediamine (see Example 13)

[3] = 11B NMR DPD-borate binding study; format: physicochemical; settings: 100 μM DPD in 400 μM B(OH)3, pH 7.5
Method: To explore the binding of DPD with borate under conditions that more closely resemble those in the natural habitat of V. harveyi and to correlate this study with previous work using DPD produced in vivo and released from the V. harveyi receptor protein, LuxP, the ^11B NMR spectrum of a 100 μM DPD solution in 400 μM B(OH)3 (Dickson et al. 1990) at pH 7.5 was recorded. […] Based on the ratio of integrals for the B(OH)3 peak and the DPD:borate peak, the concentration of DPD:borate complex was calculated to be ca 10 μM. consistent with ca 10% DPD bound at this dilution. We were unable to observe conclusively the presence of complexes with a 2:1 DPD:borate stoichiometry due to sensitivity limitations of the ^11B NMR experiment, although a peak with a S/N of 2 was recorded at δ 9.8 ppm.
To explore further the ability of DPD to complexborate at more physiologically relevant concentrations, a mixture of 10 μL of 40 mM B(OH)3, […] of 10 mM DPD, 100 μL of 1 M potassium phosphate buffer (pH 7), 200 μL of sat. NaHCO3 and 680 μL of D2O was produced to generate a 100 μM DPD solution in 400 μM B(OH)3, at pH 7.5. This solution was then analyzed by ^11B NMR to determine binding, as discussed in the Detailed Description of the Invention.

[4] = tested on: V. harveyi strain MM32 (luxN− luxS−); assay: Effects of low pH on DPD bioactivity (V. harveyi bioassay after acid treatment); format: cell-based
Method: as §1
B. Effects of low pH on enzmmatically-produced DPD bioactivity. Enzymatically produced DPD (0.53 mM stock concentration) was mixed with sulfuric or hydrochloric acid at a ratio of 1 μL H2SO4 or 5 μL HCl to 250 μL DPD, resulting in solutions with a pH of 1.5 (with H2SO4) or 2 (with HCl). At times indicated, 1 M Tris pH 8.5 was added to restore the pH to neutral and bioactivity was determined. […] Similar results were obtained after exposure to H2SO4 (not shown).
C. Effects of low pH on synthetic DPD bioactivity. Synthetically-produced DPD (100 mM stock concentration) was mixed with H2SO4 at a ratio of 1 μL H2SO4 to 250 μL DPD, resulting in solutions with a pH of 1.3. After 16 h, 1 M Tris pH 8.5 was added at a ratio of 5 μL buffer to 20 uL DPD solution to restore the pH to 7.5.

[5] = tested on: cell growth; assay: Cell growth inhibition by deprotection by-product; format: cell-based; settings: concentrations under 1 M

CC(=O)C(=O)C(O)CO (stereo not shown) [DPD, 4,5-dihydroxypentane-2,3-dione]
activity in the V. harveyi autoinducer-bioassay ([1]; deprotection solution with excess borate at pH 7.8, without further purification): active | activity compared with enzymatically prepared DPD in the V. harveyi bioassay [1]: equal | activity compared with enzymatically prepared DPD in the V. harveyi bioassay ([1]; listed as synthetic DPD): equal in activity | decomposition under acidic conditions by 1H NMR ([2]; 30 mM, 5 h at 20° C., pH 1.5): no decomposition products were observed | stability at basic pH ([2]; pH>8, unless bound to borate): less stable | DPD bound to borate [3]: ~10% | concentration of DPD:borate complex ([3]; from ratio of 11B NMR integrals): ~10 µM | change in bioactivity after storage under acidic conditions ([4]; pH 1.5-2, dilute aqueous solution, 16 h at 20° C., DPD at least 30 mM and up to 100 mM): no significant decrease in bioactivity | effect of acid treatment on autoinducer activity ([4]; synthetic, 100 mM, pH 1.3, 16 h, 20° C., listed as Synthetically-produced DPD): no loss in activity | effect of acid treatment on autoinducer activity ([4]; synthetic, 100 mM, pH 1.3, 16 h, 20° C., listed as synthetic DPD): did not change the auto inducer activity

CC(=O)C(=O)[C@H](O)CO [Ent-DPD]
activity relative to DPD (1) in the V. harveyi bioassay [1]: 1%

O=C1CCCCC1 [cyclohexanone]
inhibition of cell growth [5]: does not inhibit cell growth

CC(=O)C(=O)C(O)CO (stereo not shown) [enzymatically-produced DPD, 4,5-dihydroxypentane-2,3-dione, reference compound]
effect of acid treatment on autoinducer activity ([4]; enzymatically produced, 0.53 mM stock, pH 1.5 (H2SO4) or 2 (HCl), up to 16 h): did not affect the autoinducer activity
